For this experiment, the target named is T1, MRGPRX2 (Homo sapiens, UniProt Q96LB1).
T1 sequence (Q96LB1 1-330): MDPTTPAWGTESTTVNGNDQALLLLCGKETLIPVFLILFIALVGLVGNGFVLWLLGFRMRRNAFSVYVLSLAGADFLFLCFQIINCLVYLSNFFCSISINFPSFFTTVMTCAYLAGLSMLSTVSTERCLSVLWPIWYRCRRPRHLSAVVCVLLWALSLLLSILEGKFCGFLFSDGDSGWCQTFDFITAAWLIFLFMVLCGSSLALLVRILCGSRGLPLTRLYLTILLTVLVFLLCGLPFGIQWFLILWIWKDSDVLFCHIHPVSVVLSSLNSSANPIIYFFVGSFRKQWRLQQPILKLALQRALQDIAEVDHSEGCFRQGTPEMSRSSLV
In words: SPR, MRGPRX2 protein immobilised on CM5 chip. The format is binding. (In general: Surface plasmon resonance follows binding to a sensor surface in real time, without labels.)

Structures can show the parent of a compound that is named as a salt.

As usually defined, the Kd is the free concentration of one partner at which half of the binding sites on the other are occupied at equilibrium, for simple one-to-one binding. A lower Kd goes with higher affinity. Consider `COC1=C[C@@H]2[C@@H]3Cc4ccc(OC)c(O)c4[C@]2(CCN3)CC1=O` [M-3, N-demethylsinomenine], for which the Kd came to 7.58 µM.

The compound `COC1=C[C@@H]2[C@@H]3Cc4ccc(OC)c(O)c4[C@]2(CCN3C)CC1=O` [SH, sinomenine hydrochloride] came in with an equilibrium dissociation constant (Kd) of 0.681 µM.

Source of the values: publication PMC11322065, “N-demethylsinomenine metabolite and its prototype sinomenine activate mast cells via MRGPRX2 and aggravate anaphylaxis” (Frontiers in Pharmacology, 2024).
